Assay results from US7772179B2, “Photodynamic therapy using chemiluminescence and a ligand-photosensitiser conjugate” (priority 2005, dated 2010).

What was measured:
FL cells [1] = experiment: LTC cytotoxicity assay (PDT with ambient fluorescent light), trypan blue exclusion; format: cell-based
Procedure: (§1) (C); 0.5-1×10^5 cells/ml were cultured for 2 hr in the dark in medium alone or containing Hp or Tf-Hp (0-3 μM), washed, exposed to ambient fluorescent light for 16 hrs at room temperature and then re-cultured in full medium for 24 hrs. Cell viability was assessed by trypan blue exclusion. The data represent the mean and standard deviation from at least 3 experiments;
(§2) Late log-phase cells were washed with DMEM pre-warmed to 37° C. and cultured at 0.5-1×10^5 cells/ml either alone or with increasing concentrations of Tf-Hp LTC for 2 hrs at 37° C. in 6% CO2. Cells were then washed with DMEM, exposed to ambient fluorescent light (fluence rate=0.5 mW/cm^2) for 12-16 hours and then re-cultured in full medium for 24 hrs. […] Experiments were repeated at least three times.

K562 cells = experiment: as above; format: cell-based, Human; conditions: K-562 cells, external ambient fluorescent light
Procedure: as §1, §2

FL cells [2] = conditions: in the dark

Structure (SMILES): CC1=C(CCC(=O)O)c2cc3[nH]c(cc4nc(cc5[nH]c(cc1n2)c(C)c5C(C)O)C(C)=C4C(C)O)c(C)c3CCC(=O)O (stereo not drawn) [Hp, hematoporphyrin]
- maximum cytotoxicity (LDMAX) (FL cells [1]; FL cells, external ambient fluorescent light): 90%
- sensitivity of FL cells relative to K-562 at LDMAX (FL cells [1]; free Hp treatment, FL versus K-562): 16.6
- maximum activity (cytotoxicity) (FL cells [1]; optimization of the LTC cytotoxicity assay, about 2 hr exposure, cell line not stated): 24%
- maximum cytotoxicity (LDMAX) (K562 cells): 90%
- maximum cytotoxicity together with luminol (FL cells [2]; together with 10 μM luminol, no external light): 30%

Structure (SMILES): Nc1cccc2c(=O)[nH][nH]c(=O)c12 [luminol, 5-amino-2-3-dihydro-1,4-phtalazinedione]
- cytotoxicity, luminol alone (FL cells [2]; 10 μM luminol, no Ps): about 15%
